Data from article PMC12220852, “An adamantane‐based ligand as a novel chemical tool for thermosensory TRPM8 channel therapeutic modulation” (The Febs Journal, 2025).

Experiments:
[1] = biological target: T1, neuronal TRPM8 channels (mTRPM8) in dorsal root ganglion neurons (Mus musculus, UniProt Q8R4D5); experiment: Patch-clamp of WS-12-evoked currents in primary DRG nociceptor cultures; type: cell-based, murine; details: WS-12 evoked current, −60 mV, N = 3, n = 8; read-out: IC50 of mTRPM8 current blockade in DRG neurons
T1 construct: neuronal TRPM8 channels expressed in murine primary nociceptor cultures; endogenous in cells; host or cells: primary cultures of mouse dorsal root ganglion neurons
Excerpt: To examine the in vivo activity of compound 23, we first investigated its inhibitory potency on neuronal TRPM8 channels expressed in murine primary nociceptor cultures by patch‐clamp. […] Alternatively, it could also be due to distinct gating mechanisms of both orthologs or the influence of the neuronal environment.
Primary cultures of neonatal dorsal root ganglia were used for multielectrode array (MEA) and patch‐clamp experiments following established methodologies previously described. Neonatal dorsal root ganglia (DRGs) were obtained from Wistar rats (3–5 days old) and were isolated and digested with 0.25% (w/v) collagenase (type IA) in DMEM GlutaMax with 1% (v/v) penicillin/streptomycin (P/S) solution for 1 h at 37 °C in a 5% CO2 Thermo Scientific incubator. Following digestion, DRGs were mechanically dissociated and passed through a 100 μm cell strainer to obtain single‐cell suspensions. Suspensions were washed with DMEM GlutaMax with 10% (v/v) fetal bovine serum (FBS) and 1% (v/v) penicillin/streptomycin (P/S). Cells were then seeded in microelectrode array chambers coated with poly‐L‐lysine (8.3 μg·mL^−1) and laminin (5 μg·mL^−1). After 1 h, the medium was replaced with DMEM GlutaMax, 10% (v/v) FBS, and 1% (v/v) P/S, supplemented with mouse 2.5S NGF 50 ng·mL^−1 and 1.25 μg·mL^−1 cytosine arabinoside. […]

[2] = Metabolic stability and metabolite profile in mouse liver microsomes (MLM); type: in vitro ADME; details: after 1 h at 37 °C, 50 μM substrate
Method: Because of the lack of systemic activity of compound 23, we evaluated the in vitro plasmatic and hepatic metabolic stability. To this aim, compound 23 was exposed to mouse plasma and mouse liver microsome (MLM) fractions, and the residual substrate was measured after 1 h. Under these conditions, the residual substrate was about 97% and 90% in plasma and microsomes, respectively, denoting that this molecule suffers from mild hydrolysis of the ester group.
Metabolic biotransformation of compound 23 was investigated by tandem high‐resolution mass spectrometry using the software COMPOUND DISCOVERER 3.2™.
The standard incubation mixture (250 μL final volume) was carried out in a 50 mM Tris (tris[hydroxymethyl]aminomethane) buffer (pH 7.4) containing 150 mM KCl, […], 3.3 mM MgCl2, 1.3 mM NADPNa2, 3.3 mM glucose 6‐phosphate, 0.4 units·mL^−1 glucose 6‐phosphate dehydrogenase, acetonitrile as cosolvent (1% of total volume), and the substrate (50 μM). After pre‐equilibration of the mixture, an appropriate volume of MLM suspension was added to give a final protein concentration of 1.0 mg·mL^−1. The mixture was shaken for 60 min at 37 °C using a horizontal shaking thermostatic bath while protecting the samples from light. Control incubations were carried out without the presence of substrate, or NADPH regenerating system, or microsomes. Each incubation was stopped by the addition of 250 μL of ice‐cold acetonitrile, vortexed, and centrifuged at 13 000 r.p.m. for 5 min [68]. The supernatants were analyzed by LC‐UV and LC‐HRMS equipment (see Tables S1 and S2, Fig. S79 for full parameters setting in the Supporting Information).
The metabolic stability of the compound 23 was determined in vitro by measuring the residual peak area after incubation by LC‐UV analysis. Samples were further processed by LC‐HRMS equipment for metabolite profiling. Raw data files were processed using both XCALIBUR® and COMPOUND DISCOVERER 3.2® software (Thermo Scientific) using a customized workflow for the detection and identification of the expected and unknown metabolites (Fig. S80).

T1 sequence (Q8R4D5 whole entry): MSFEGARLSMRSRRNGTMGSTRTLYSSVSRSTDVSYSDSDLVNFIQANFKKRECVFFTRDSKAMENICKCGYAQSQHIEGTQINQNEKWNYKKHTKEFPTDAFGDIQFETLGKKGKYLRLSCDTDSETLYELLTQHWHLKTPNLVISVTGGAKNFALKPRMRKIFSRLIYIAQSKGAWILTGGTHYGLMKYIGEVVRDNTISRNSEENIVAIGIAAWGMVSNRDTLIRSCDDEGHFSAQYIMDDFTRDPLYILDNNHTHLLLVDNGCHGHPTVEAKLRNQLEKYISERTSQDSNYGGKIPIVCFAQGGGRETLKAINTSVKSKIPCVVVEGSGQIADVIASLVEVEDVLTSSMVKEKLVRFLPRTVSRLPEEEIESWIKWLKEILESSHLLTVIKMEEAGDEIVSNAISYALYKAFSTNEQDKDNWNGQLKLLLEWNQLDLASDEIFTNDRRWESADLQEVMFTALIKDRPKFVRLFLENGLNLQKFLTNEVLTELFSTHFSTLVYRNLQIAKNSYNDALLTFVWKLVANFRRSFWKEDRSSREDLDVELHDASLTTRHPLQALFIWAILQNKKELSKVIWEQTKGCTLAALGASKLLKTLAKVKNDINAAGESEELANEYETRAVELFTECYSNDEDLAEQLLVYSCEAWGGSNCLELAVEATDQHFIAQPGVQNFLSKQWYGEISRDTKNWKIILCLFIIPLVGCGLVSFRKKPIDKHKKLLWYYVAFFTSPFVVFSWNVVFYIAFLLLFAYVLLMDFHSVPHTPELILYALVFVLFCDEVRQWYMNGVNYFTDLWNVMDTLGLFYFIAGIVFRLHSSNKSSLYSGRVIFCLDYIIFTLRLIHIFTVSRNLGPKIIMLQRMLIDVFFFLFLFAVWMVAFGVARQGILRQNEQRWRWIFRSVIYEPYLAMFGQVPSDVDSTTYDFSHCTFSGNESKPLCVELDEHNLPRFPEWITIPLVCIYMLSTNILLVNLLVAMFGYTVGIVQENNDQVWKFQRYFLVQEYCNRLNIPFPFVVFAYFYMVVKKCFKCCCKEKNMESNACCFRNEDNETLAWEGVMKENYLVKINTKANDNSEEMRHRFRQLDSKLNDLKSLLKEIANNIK

In the case of O=C(COC(=O)c1ccccc1-c1ccccc1)NC12CC3CC(CC(C3)C1)C2 [Compound 23, 2‐((3S,5S,7S)‐adamantan‐1‐ylamino)‐2‐oxoethyl [1,1′‐biphenyl]‐2‐carboxylate], the IC50 [1] is reported as 430 ± 750 nM, the “residual substrate in mouse liver microsomes without NADPH regenerating system” value [2] is reported as about 90% and the “residual substrate in mouse liver microsomes with NADPH regenerating system” value ([2]; monooxygenase system activated) is reported as “about 42%”.
